From patent US11311568B2, “Therapeutic pharmaceutical composition for cancer including miRNA” (Purmx Therapeutics, Inc., priority 2017, dated 2022)

Key:
[1] = tested on: pancreatic cancer cell strain CFPAC-1; test: Screening in cancer cell strains, cell survival rate with PrestoBlue; assay type: cell-based; conditions: CFPAC-1, Day 5 after transfection with RNAiMAX, compared with miR-34a-5p
Description: (§1) The 349 types of aging induction miRNA (mirVana; Ambion) obtained from screening were transfected into various cancer cell strains (large intestine cancer cell strain HCT116 (p53 wildtype and p53 deletion), pancreatic cancer cell strains BxPC-3 and CFPAC-1, and tongue cancer cell strain HSC-4) with an auto dispenser Bravo (Agilent).
(§2) Transfection was carried out with the following protocol.
(§3) 1: To 70 μL of serum free medium (SFM) was added 0.35 μL of RNAiMAX (Invitrogen).
(§4) 2: The solution from 1 was added to a 96-well plate (μ-plate; ibidi) with Bravo.
(§5) 3: To 2 was added 0.7 μL of miRNA (Stock Conc. 200 nM) with Bravo, and this was mixed by pipetting.
(§6) 4: This was incubated at room temperature for 20 minutes.
(§7) 5: A cell suspension diluted to 3.5×10^4 cells/mL was dispensed at 70 μL each with Bravo.
(§8) 6: This was incubated at 37° C. under 5% CO2 condition.
(§9) Setting the day of transfection as Day 0, on Day 5 the cell survival rate was evaluated with PrestoBlue (Invitrogen). The operating protocol is shown below.
(§10) 1. The medium was exchanged to a medium comprising PrestoBlue diluted 20-folds, and this was incubated at 37° C. for 1 hour. 2. The fluorescence value (Ex/Em=560 nm/590 nm) was measured with Enspire (Perkin Elmer).
(§11) 3. The cell survival rate was determined by setting the fluorescence value obtained from the well with only the reagent as the background.

[2] = tested on: pancreatic cancer cell strain BxPC-3; test: as above; assay type: cell-based; conditions: BxPC-3, Day 5 after transfection with RNAiMAX, compared with miR-34a-5p
Description: as §1, §2, §3, §4, §5, §6, §7, §8, §9, §10, §11

[3] = tested on: large intestine cancer cell strain HCT116 (p53 wildtype); test: as above; assay type: cell-based; conditions: Day 5 after transfection with RNAiMAX, compared with miR-34a-5p
Description: as §1, §2, §3, §4, §5, §6, §7, §8, §9, §10, §11

[4] = tested on: large intestine cancer cell strain HCT116 (p53 deletion); test: as above; assay type: cell-based; conditions: Day 5 after transfection with RNAiMAX, compared with miR-34a-5p
Description: as §1, §2, §3, §4, §5, §6, §7, §8, §9, §10, §11

[5] = tested on: malignant pleural mesothelioma cell strain EHMES-10; test: Antitumor effect in vivo, intrathoracic orthotopic transplantation model mouse; design: species or system mice (C-B-17/Icr-scid/scid Jcl)
Description: The tumor suppression effect of miR-3140-3p in vivo was investigated with intrathoracic orthotopic transplantation model mouse.
Six weeks-old male mice (C-B-17/Icr-scid/scid Jcl) were used as mice. Malignant pleural mesothelioma cell strain EHMES-10 which expresses the luciferase gene was used as the tumor cell.
The experiment protocol is shown below.
1: Mice were intraperitoneally administered 0.1 mL per 10 g of body weight of a mixed anesthetic drug of medetomidine hydrochloride, midazolam, and butorphanol tartrate.
2: After anesthesia, mouse chest hair was shaved, and an incision was made in the epidermis with scissors.
3: In the mouse pleural cavity 100 μL of tumor cells (3×10^7 cells/mL) was transplanted with a 27 G syringe for insulin.
4: Three days after transplantation, imaging of tumor cells was performed with IVIS Spectrum CT In vivo Imaging System.
5: After imaging, grouping was performed with successfully transplanted mice.
6: Mice were intraperitoneally administered 0.1 mL per 10 g of body weight of a mixed anesthetic drug of medetomidine hydrochloride, midazolam, and butorphanol tartrate to anesthetize the mice.
7: After anesthesia, 100 μL of miRNA/A6K mixture was administered in the mouse pleural cavity.
8: Imaging was performed every week from the first imaging, and tumor expansion was observed.
9: The time and date of death of the mice was recorded, and mice survival rate was calculated.
The mixed anesthetic drug of medetomidine hydrochloride, midazolam, and butorphanol tartrate was prepared as in Table 4 below. The miRNA/A6K mixture was prepared as in Table 5. Moreover, the control group was administered the RNA shown in Table 6 instead of the miRNA of the present invention.
Note that in order to improve expression efficiency, miRNA was administered as a double-strand in combination with a complementary strand comprising partial mismatch.

For “miR-3140-3p: Mature-miRNA, AGCUUUUGGGAAUUCAGGUAGU (SEQ ID NO. 2) (listed as RNA, chemistry not given here; listed as Homo sapiens)”, the “suppression of cell proliferation (cell survival rate, PrestoBlue)” value (from here on “suppression of cell proliferation”) [1] was “suppress cell proliferation more significantly than miR-34-5p”, the “suppression of cell proliferation” value [2] was “suppress cell proliferation more significantly than miR-34-5p” and the “suppression of cell proliferation” value [3] was “suppress cell proliferation more significantly than miR-34-5p”. For the same substance, the “suppression of cell proliferation” value [4] was “suppress cell proliferation more significantly than miR-34-5p”, the “tumor reduction by imaging” value ([5]; one administration of miRNA/A6K in pleural cavity, 3.2 nmol (45 μg) per mouse, Day 10 to Day 24 after transplantation, FIG. 20) was “tumor reduction was seen” and the “tumor expansion (imaging results digitized)” value ([5]; one administration of miRNA/A6K in pleural cavity, FIG. 21) was “significantly suppressed tumor expansion”. The “survival rates of mice” value ([5]; one administration of miRNA/A6K in pleural cavity, FIG. 22) was “survival rates of mice had improved”, the “survival rates of mice” value ([5]; three administrations of miRNA/A6K in pleural cavity, FIG. 28) was “more improved” and the “suppression of malignant pleural mesothelioma (imaging, survival)” value ([5]; three administrations of miRNA/A6K in pleural cavity, FIGS. 26-28) was “significantly suppressed malignant pleural mesothelioma”. For the same substance, the “suppression of malignant pleural mesothelioma (imaging, survival)” value ([5]; two administrations of miRNA/A6K in pleural cavity, FIGS. 23-25) was “significantly suppressed malignant pleural mesothelioma”.
